This note sets out measurements from PMC11571109, “Covalent Inhibitors of S100A4 Block the Formation of a Pro-Metastasis Non-Muscle Myosin 2A Complex” (Journal of Medicinal Chemistry, 2024).

“And” between values parts separate entries of the source, which are not always exact repeats. Equal values may be shown once. Read-outs that look alike come from different tables or passages of the source.

The target of one data set is T1, S100A11-AnII (Homo sapiens, UniProt P31949).
T1 construct: made in house; host or cells: E. coli Rosetta (DE3); peptide from LifeTein
T1 sequence (P31949 1-105): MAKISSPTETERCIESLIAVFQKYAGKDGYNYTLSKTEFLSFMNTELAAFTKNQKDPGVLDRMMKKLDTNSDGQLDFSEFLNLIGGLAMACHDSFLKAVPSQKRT
Put plainly: HTRF (TR-FRET) peptide displacement S100A11-AnII. The format is binding. The note with it: supplementary CSV. Here is the method: Table S4: Compound IDs and SMILES … S30 […]
(§1) Peptide displacement assay development
(§2) addition of an inhibitor.
(§3) Assay was done in 384-well
(§4) After 2 hours of incubation at
(§5) concentration range to avoid the saturation of the signal.
Background: Time-resolved FRET reads energy transfer from a long-lived donor to a nearby acceptor.

Data set [1] has as its target T2, S100A4-NMII (Homo sapiens, UniProt P26447). In words: HTRF (TR-FRET) peptide displacement S100A4-NMII (MPN peptide). The format is binding. Set-up: made in house; host or cells: E. coli Rosetta (DE3); peptide from LifeTein. The note with it: supplementary CSV; read-out: S100A4 IC50 HTRF assay. Here is the method: as §1, §2, §3, §4, §5
Data set [2] can be described thus: GSH reactivity assay (LCMS). The format is physicochemical. Conditions: 1 mM glutathione (GSH) in HEPES buffer, pH 7.5; read-out: GSH t1/2 (converted). Here is the method:
GSH is the most abundant low molecular weight thiol compound in the cell. It protects cells from oxidative damage and the toxicity of xenobiotic electrophiles and maintains redox homeostasis.[43] We speculated that a robust and specific reaction of inhibitors would not be drastically affected by competitive cysteines in the reaction.
50 μM of each compound was incubated at room temperature with 1 mM GSH in 50 mM HEPES, 20 mM NaCl, pH 7.5, and 1.3% DMSO. At each time point, an aliquot was taken and analyzed by LCMS. The percentage of the compound remaining was determined by comparing the area of the peaks of the compound and the GSH adduct. The natural logarithm of the results was fitted to a linear regression, and t1/2 was calculated as t1/2 = ln(2)/–slope.

The subject of a further data set is HeLa. Put plainly: Cell proliferation assay (CellTiter-Glo), HeLa. The format is cell-based. The note with it: Homo sapiens, 48 h, supplementary CSV. The procedure:
(§6) To further characterize the potency of the phenylproline derivatives on cancer cells, their effect on proliferation has been measured on HeLa and A549 cell lines, which are known to express S100A4.[44],[45] A cell proliferation assay was performed by cultivating cells for 48 h in complete media with various concentrations of inhibitors, up to 30 μM. At the end of the treatment, luminescence was measured after the addition of the CellTiter-Glo reagent (Figure 7A).
(§7) The day before, cells were seeded in a white, cell-culture treated 384-well plates in complete high-glucose DMEM to reach a confluency of 25% on the day of the experiment. The next day, the medium was replaced by complete, high-glucose, phenol-red-free medium, and cells were incubated for 48 h in the presence of an inhibitor or DMSO as a control. Aliquots of the supernatant were harvested, diluted 100 times in 200 mM Tris-HCl, pH 7.3, 10% glycerol, and 1% BSA buffer, and used for cyctotoxicity measurement by using the LDH-Glo cytotoxicity assay kit (Promega). In parallel, the CellTiter-Glo (Promega) reagent was added to the cells to measure cell proliferation. Both experiments were done according to the manufacturer’s recommendations, and the luminescence was quantified using the FSX plate reader (Pherastar).
On the technique in general: ATP-based viability assays read luminescence as a measure of living cells.

The subject of a further data set is A549. In words: Cell proliferation assay (CellTiter-Glo), A549. Conditions: Homo sapiens, 48 h, supplementary CSV. The format is cell-based. The procedure:
as §6, §7

The nature of data set [3]: Cytotoxicity assay (LDH-Glo), HeLa. It counts as cell-based. The note with it: human, HeLa cells, supplementary CSV, read-out: HeLa Cell toxicity IC50. The procedure: as §6, §7
Data set [4] in a line: Cytotoxicity assay (LDH-Glo), A549. The format is cell-based. Conditions: human, A549 cells, supplementary CSV, read-out: A549 Cell toxicity IC50. Here is the method: as §6, §7
The next data set concerns HeLa cells. In words: Cell migration (wound healing) assay, HeLa. Conditions: 8 μM, 36 h. It counts as cell-based. Here is the method:
We next investigated whether phenylproline derivatives would inhibit S100A4 activity by affecting cell migration. HeLa and A549 cells were challenged for a cell migration assay in the presence of phenylproline derivatives. A monolayer of cells was scratched and treated with various concentrations of inhibitors for 36 h. Cell migration was monitored automatically using the Incucyte live-cell imager by imaging cells every 2 h.
The day before the experiment, cells were seeded in a black, clear-bottom, collagen-coated 96-well plate in complete high-glucose DMEM to reach nearly full confluency the next day. On the day of the experiment, a wound in the cell layer was made, and the media were replaced with media containing phenylproline derivatives. Cells were incubated for 36 h in an Incucyte cell-imager (Sartorius, Germany), allowing for automated cell imaging every 2 h. The analysis was done by measuring the wound area using ImageJ and plugging the wound healing tool.

A further data set is described as follows: Log D. It counts as physicochemical. The source says:
(§8) Selected compounds were screened for aqueous solubility in PBS (pH 7.4), metabolic stability in mouse liver microsomes (MLM) as a measure of clearance, Log D, and permeability. ADME studies reported in this work were independently performed by WuXi AppTec (Shanghai, China). Raw data are provided upon request.

Data set [5] in a line: Aqueous solubility in PBS (pH 7.4). The format is physicochemical. The note with it: aqueous buffer; PBS pH 7.4; read-out: aq. solubility.
Excerpt: as §8

Data set [6] can be described thus: Metabolic stability in mouse liver microsomes (MLM). The format is in vitro ADME. Conditions: mouse liver microsomes.
Excerpt: as §8
A general note: Liver microsomes are vesicles of endoplasmic reticulum, rich in cytochrome P450 enzymes.

The subject of data set [7] is P-glycoprotein (P-gp, MDR1). Put plainly: Cell permeability MDR1-MDCK II. The format is in vitro ADME. Conditions: dog.
Excerpt: as §8

The target in data set [8] is T2, S100A4-NMII. Put plainly: cell-based.
Excerpt: First, we performed IC50 measurements of protein–protein interaction in the presence of inhibitors using NanoBret technology. Briefly, S100A4-HaloTag and NMII-NanoLuc were expressed in 293HEK cells to allow signal detection from donor (NanoLuc) and acceptor (HaLoTag) proximity upon S100A4-NMII interaction.
Assay development was done according to the NanoBRet-NanoGlo detection system manufacturer’s recommendations (Promega) by testing each combination of N- and C-termini of HaloTag and NanoLuc fusion constructs. 293HEK cells were seeded on 6-well plates in complete DMEM media and transfected 6 h later with S100A4-NanoLuc (1.8 μg) and NMII-HaloTag (0.2 μg) constructs using the JetPrime transfection reagent (Polyplus Transfection, Strasbourg, France). After an overnight incubation, cells were resuspended in phenol-red-free, 4% serum media in the presence of the HaloTag NanoBret 618 ligand or DMSO for control. […] NanoBret NanoGlo substrates were added to cells prior to reading the plate with the Pherastar FSX plate reader. The raw Nanobret ratio was calculated by dividing the acceptor emission value (618 nm) by the donor emission value (460 nm) for each sample. The mean NanoBret data were calculated by subtracting the background ratio (no acceptor control) from the sample ratio.
The target in data set [9] is T3, S100A4 (Homo sapiens, UniProt P26447). Put plainly: Protein labeling detection by mass spectrometry, S100A4. The note with it: 10 μM S100A4, 100 μM inhibitor, 1 h.
Method: To confirm its mechanism of inhibition, we performed a protein labeling assay. S100A4 protein was incubated in the presence of BAY11–7082 and analyzed by mass spectrometry (Figure 1C).
The compounds and their activity on S100A4-NMII and S100A11-AnII are shown in Figure 2A,B. To investigate their covalent activity, we then performed a protein labeling assay by incubating S100A4 in the presence of the inhibitors in parallel.
The mixture was incubated for 1 h at room temperature in the dark and analyzed by mass spectrometry using a 1290 Infinity coupled to a 6530 Accurate-Mass Q-TOF LC/MS (Agilent Technologies). Results were analyzed using the Qualitative Analysis MassHunter Acquisition Data and the Bioconfirm software.
In data set [10] the target is T3, S100A4. Put plainly: biochemical. Here is the method:
As a starting point to discover new S100 inhibitors, we used a peptide-displacement assay based on the Amplified Luminescent Proximity Homogeneous Assay (AlphaScreen) of a His-tagged protein interacting with a biotinylated peptide and its ability to be disrupted by small molecule inhibitors of protein interactions.[31] We took advantage of the ability of several S100 proteins to interact with the TRTK-12 peptide.[32] The optimal experimental conditions were determined by performing a protein versus peptide titration for each protein. Serial dilutions of purified 6His-S100 protein (S100A2, S100A4, S100A5, or S100B) were mixed with a serial dilution of a biotinylated TRTK-12 peptide in the presence of 1 mM calcium to allow conformational changes and activation of S100 proteins. […]
A 4 989 compound library was screened using an Alpha-Screen assay. […] Twelve wells per plate were used as solvent controls and as a reference for inhibition calculation, which was calculated as inhibition (%) = (1 – (Fsample– Fbackground)/(Fsolvent – Fbackground)) × 100
(§9) The best hits from the single-shot experiment were tested for IC50 determination using the HTRF assay as described above. […] The percentage of inhibition was calculated as described above and was used for IC50 determination. […]

The target of a further data set is S100A2 (Homo sapiens, UniProt P29034). Conditions: read-out: IC50 S100A2 - TRTK peptide displacement; AlphaScreen, duplicate, 50 μM top FAC. Here is the method:
(§10) As a starting point to discover new S100 inhibitors, we used a peptide-displacement assay based on the Amplified Luminescent Proximity Homogeneous Assay (AlphaScreen) of a His-tagged protein interacting with a biotinylated peptide and its ability to be disrupted by small molecule inhibitors of protein interactions.[31] We took advantage of the ability of several S100 proteins to interact with the TRTK-12 peptide.[32] The optimal experimental conditions were determined by performing a protein versus peptide titration for each protein. Serial dilutions of purified 6His-S100 protein (S100A2, S100A4, S100A5, or S100B) were mixed with a serial dilution of a biotinylated TRTK-12 peptide in the presence of 1 mM calcium to allow conformational changes and activation of S100 proteins. The protein–peptide ratio that allows the highest signal to background, without signal saturation, was chosen as the assay condition for each protein to perform the first screening campaign (Figure S1 and Table S1). An internal diversity library of 4 989 small molecules was screened at a single-dose of 50 μM in duplicate in a 384-well plate format. The four S100 protein screening experiments were performed in parallel. […] We also selected the hits based on their ability to show specificity for one protein; compounds showing 50% or more inhibition for other S100 proteins were not selected (Supporting Information).
(§11) A 4 989 compound library was screened using an Alpha-Screen assay. 6His-Tag-S100A2, -S100A4, -S100A5, and -S100B were used in combination with TRTK-Biotin peptide under conditions described previously. […] Twelve wells per plate were used as solvent controls and as a reference for inhibition calculation, which was calculated as inhibition (%) = (1 – (Fsample– Fbackground)/(Fsolvent – Fbackground)) × 100
as §9

A further data set deals with S100A5 (Homo sapiens, UniProt P33763). The note with it: read-out: IC50 S100A5 - TRTK peptide displacement; AlphaScreen, duplicate, 50 μM top FAC. The procedure: as §10, §11, §9
In a further data set the target is S100B (Homo sapiens, UniProt P04271). The note with it: read-out: IC50 S100B - TRTK peptide displacement; AlphaScreen, duplicate, 50 μM top FAC. Here is the method: as §10, §11, §9
Sequence of S100B (P04271 whole entry): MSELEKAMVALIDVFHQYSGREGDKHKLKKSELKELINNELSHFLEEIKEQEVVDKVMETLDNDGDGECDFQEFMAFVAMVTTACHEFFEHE

T3 sequence (P26447 whole entry): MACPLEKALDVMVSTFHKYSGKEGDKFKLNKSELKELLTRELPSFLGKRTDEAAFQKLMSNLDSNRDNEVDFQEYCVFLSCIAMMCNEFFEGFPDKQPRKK
T2 sequence (P26447 whole entry): as above
Sequence of S100A2 (P29034 whole entry): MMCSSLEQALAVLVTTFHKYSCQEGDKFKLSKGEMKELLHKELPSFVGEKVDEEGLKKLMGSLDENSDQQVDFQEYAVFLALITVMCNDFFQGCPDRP
Sequence of S100A5 (P33763 whole entry): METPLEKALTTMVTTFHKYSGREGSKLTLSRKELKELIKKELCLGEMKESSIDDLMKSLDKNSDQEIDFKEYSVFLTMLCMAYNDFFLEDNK

As for `C#CC(=O)N1CCN(CCc2cnn(-c3nccc4c(=O)[nH]cnc34)c2)CC1` [4a], the IC50 at S100A11-AnII was found to be 8.15 µM; on S100A4-NMII [1] it was 1.73 µM.
The like results for `C=CC(=O)Nc1cccc(CN(CCc2cnn(-c3nccc4c(=O)[nH]cnc34)c2)C2CCCC2)c1` [3b] were, in that order, above 30 µM and 9.32 µM.
The like results for `CN1CCCC(NC(=O)[C@H]2C[C@H](c3ccccc3)CN2C(=O)CCl)C1=O` (stereo partly drawn) [5d] were, in that order, above 30 µM and 1.05 µM.
On to `O=C(Nc1cccc(Cl)c1)[C@H]1C[C@H](c2ccccc2)CN1C(=O)CCl` [5a], for which the IC50 at S100A11-AnII was above 30 µM; in the data set with HeLa, 3.1 µM; with A549 it was 25 µM; at S100A4-NMII [8] it was 20 µM; on S100A4-NMII [1], 4.22 µM. In [2], the half-life at 50 μM is 9.4 h. The IC50 at 48 h in data set [3] came out at 55.8 µM; in data set [4] it was 27.1 µM. In addition, in the data set with HeLa cells, the “wound healing (cell migration)” value was “drastically reduced wound healing”. In “Log D”, this compound showed a logD of 3.95. Further, the solubility in data set [5] was 23.9 µg/mL and 63.4 µM. Besides, the “MLM, Cli” value in data set [6] is recorded as 332 μL/min/mg protein. Further, the half-life in data set [6] (read-out: MLM, T1/2) is 4 min. Moreover, the Papp in [7] (MDCK-MDR1, A to B, read-out: MDR1-MDCK II, AB Papp) is 0.8 ×10⁻⁶ cm/s; in data set [7] (MDCK-MDR1, B to A, read-out: MDR1-MDCK II, BA Papp), below 26.4 ×10⁻⁶ cm/s. For the same compound, on S100A4 [9], the “S100A4 covalent modification pattern (in words)” value is on record as “single shifts”.
Turning to `COc1cccc(N2CC(NC(=O)[C@H]3C[C@H](c4ccccc4)CN3C(=O)CCl)CC2=O)c1` (stereo partly drawn) [5f], the figures for the IC50 at S100A11-AnII and at S100A4-NMII [1] were above 30 µM and 4.75 µM, respectively.
Consider `O=C(CCl)Nc1cccc(CN(CCc2cnn(-c3nccc4c(=O)[nH]cnc34)c2)C2CCCC2)c1` [3a], for which the IC50 was above 30 µM on S100A11-AnII and 2.4 µM on S100A4-NMII [1].
Regarding `Cc1ccc(S(=O)(=O)/C=C/C#N)cc1` [compound 1], the IC50 on S100A4 [10] was below 1 µM; on S100A4 [10] (read-out: IC50 S100A4 - TRTK peptide displacement, AlphaScreen, duplicate, 50 μM top FAC, 1 mM calcium), 1.23 µM; at S100A2, above 30 µM; at S100A5, above 30 µM; on S100B, above 30 µM.
With `N#CCc1ccc(NC(=O)[C@H]2C[C@H](c3ccccc3)CN2C(=O)CCl)cc1` [5g], the IC50 on S100A11-AnII was above 30 µM; at S100A4-NMII [1] it was 1.24 µM.

A word on the IC50: it is the concentration that gives 50% inhibition. A word on the logD: it is lipophilicity at a set pH, counting ionised and neutral species. A high value points to higher lipophilicity. A word on the solubility: it is how much of the substance goes into solution per volume. A word on the Papp: it is the rate of passage across a membrane or cell layer, normalised by area and donor concentration.
